Experiment: xn = mol fraction of the nth substance listed

CCCCC(=O)O + CCCCCCCCCCO
viscosity [mPa·s], 100 kPa
Conditions | x1 = 0.0851 | x1 = 0.1742 | x1 = 0.2512 | x1 = 0.3616 | x1 = 0.4363 | x1 = 0.5587 | x1 = 0.6618 | x1 = 0.7474 | x1 = 0.8618 | x1 = 0.9312
293.15 K | 12.76 | 11.18 | 9.99 | 8.58 | 7.71 | 6.4 | 5.35 | 4.5 | 3.44 | 2.83
303.15 K | 8.73 | 7.68 | 6.9 | 5.97 | 5.41 | 4.56 | 3.89 | 3.35 | 2.65 | 2.25
313.15 K | 6.17 | 5.54 | 5.06 | 4.45 | 4.07 | 3.47 | 2.99 | 2.61 | 2.12 | 1.83
323.15 K | 4.49 | 4.09 | 3.79 | 3.38 | 3.12 | 2.7 | 2.37 | 2.1 | 1.75 | 1.55

NCCNCCN + CCCCCCCCCCO
viscosity [mPa·s], 101 kPa
Conditions | 298.15 K | 303.15 K | 308.15 K
x1 = 0.0564 | 12.02 | 9.924 | 8.366
x1 = 0.1003 | 12.52 | 10.34 | 8.775
x1 = 0.1543 | 12.81 | 10.46 | 8.862
x1 = 0.2007 | 12.75 | 10.39 | 8.738
x1 = 0.259 | 12.43 | 10.11 | 8.451
x1 = 0.3083 | 12 | 9.746 | 8.092
x1 = 0.4061 | 10.91 | 8.874 | 7.255
x1 = 0.5034 | 9.787 | 7.869 | 6.538
x1 = 0.6067 | 8.422 | 6.913 | 5.779
x1 = 0.7075 | 7.345 | 6.087 | 5.117
x1 = 0.8062 | 6.406 | 5.281 | 4.552
x1 = 0.852 | 6.037 | 4.932 | 4.298
x1 = 0.9067 | 5.656 | 4.678 | 4.065
x1 = 0.9524 | 5.499 | 4.556 | 3.897

CCCCC(=O)O + CCCCCCCCCO
viscosity [mPa·s], 100 kPa
Conditions | x1 = 0.0827 | x1 = 0.1635 | x1 = 0.2318 | x1 = 0.3519 | x1 = 0.4517 | x1 = 0.5569 | x1 = 0.6472 | x1 = 0.7328 | x1 = 0.8691 | x1 = 0.9502
293.15 K | 10.14 | 8.95 | 8.08 | 6.89 | 6.05 | 5.25 | 4.6 | 4 | 3.09 | 2.56
303.15 K | 6.95 | 6.12 | 5.53 | 4.73 | 4.16 | 3.64 | 3.22 | 2.86 | 2.32 | 2.03
313.15 K | 5.09 | 4.64 | 4.3 | 3.78 | 3.39 | 2.99 | 2.67 | 2.38 | 1.95 | 1.71
323.15 K | 3.76 | 3.47 | 3.26 | 2.92 | 2.66 | 2.39 | 2.17 | 1.96 | 1.64 | 1.46

CCCC[N+](CCCC)(CCCC)CCCC.[Br-] + CCCCCCCCCO
101.3 kPa, x1 = 0.2
Conditions | viscosity [mPa·s]
293.15 K | 56.57
298.15 K | 43.65
303.15 K | 35.27
308.15 K | 28.53
313.15 K | 23.29
318.15 K | 19.13
323.15 K | 15.99

CCCCC(=O)O + CCCCCCCCO
viscosity [mPa·s], 100 kPa
Conditions | x1 = 0.0831 | x1 = 0.1619 | x1 = 0.2381 | x1 = 0.3512 | x1 = 0.4418 | x1 = 0.5665 | x1 = 0.6539 | x1 = 0.7441 | x1 = 0.8551 | x1 = 0.9417
293.15 K | 8.14 | 7.31 | 6.64 | 5.83 | 5.25 | 4.52 | 4.04 | 3.56 | 2.99 | 2.55
303.15 K | 5.85 | 5.4 | 5.01 | 4.47 | 4.06 | 3.51 | 3.14 | 2.78 | 2.36 | 2.06
313.15 K | 4.28 | 3.97 | 3.7 | 3.33 | 3.06 | 2.7 | 2.46 | 2.21 | 1.93 | 1.71
323.15 K | 3.21 | 3.01 | 2.83 | 2.59 | 2.4 | 2.15 | 1.99 | 1.82 | 1.61 | 1.45

NCCNCCN + CCCCCCCCO
viscosity [mPa·s], 101 kPa
Conditions | 298.15 K | 303.15 K | 308.15 K
x1 = 0.0574 | 8.191 | 6.649 | 5.637
x1 = 0.1135 | 8.77 | 7.063 | 5.975
x1 = 0.1584 | 9.103 | 7.248 | 6.111
x1 = 0.2 | 9.198 | 7.3 | 6.14
x1 = 0.2521 | 9.202 | 7.268 | 6.096
x1 = 0.311 | 9.044 | 7.129 | 5.957
x1 = 0.4024 | 8.532 | 6.792 | 5.691
x1 = 0.5076 | 7.72 | 6.264 | 5.244
x1 = 0.6106 | 6.988 | 5.798 | 4.877
x1 = 0.7085 | 6.366 | 5.286 | 4.493
x1 = 0.8064 | 6.017 | 4.915 | 4.228
x1 = 0.8556 | 5.901 | 4.791 | 4.101
x1 = 0.9033 | 5.791 | 4.679 | 3.999
x1 = 0.9524 | 5.699 | 4.584 | 3.889

CCCCC(=O)O + CCCCCCCO
viscosity [mPa·s], 100 kPa
Conditions | x1 = 0.0814 | x1 = 0.1667 | x1 = 0.2436 | x1 = 0.3521 | x1 = 0.4395 | x1 = 0.5617 | x1 = 0.6566 | x1 = 0.7424 | x1 = 0.8518 | x1 = 0.9437
293.15 K | 6.67 | 6.29 | 5.94 | 5.44 | 5.02 | 4.43 | 3.96 | 3.54 | 2.99 | 2.53
303.15 K | 4.79 | 4.54 | 4.31 | 3.98 | 3.7 | 3.31 | 3 | 2.72 | 2.36 | 2.06
313.15 K | 3.52 | 3.32 | 3.14 | 2.9 | 2.72 | 2.46 | 2.27 | 2.09 | 1.87 | 1.68
323.15 K | 2.66 | 2.53 | 2.42 | 2.26 | 2.13 | 1.96 | 1.83 | 1.71 | 1.56 | 1.43

CCCCC(=O)O + CCCCCCO
viscosity [mPa·s], 100 kPa
Conditions | x1 = 0.0922 | x1 = 0.1786 | x1 = 0.2643 | x1 = 0.3791 | x1 = 0.4723 | x1 = 0.5917 | x1 = 0.6782 | x1 = 0.7647 | x1 = 0.8655 | x1 = 0.9463
293.15 K | 5.13 | 4.89 | 4.64 | 4.3 | 4 | 3.61 | 3.33 | 3.04 | 2.7 | 2.43
303.15 K | 3.78 | 3.63 | 3.47 | 3.24 | 3.04 | 2.79 | 2.6 | 2.4 | 2.17 | 1.99
313.15 K | 2.84 | 2.74 | 2.63 | 2.49 | 2.36 | 2.18 | 2.06 | 1.93 | 1.78 | 1.65
323.15 K | 2.18 | 2.11 | 2.03 | 1.93 | 1.85 | 1.74 | 1.66 | 1.57 | 1.48 | 1.4

NCCNCCN + CCCCCCO
viscosity [mPa·s], 101 kPa
Conditions | 298.15 K | 303.15 K | 308.15 K
x1 = 0.0573 | 5.116 | 4.247 | 3.626
x1 = 0.1064 | 5.533 | 4.59 | 3.929
x1 = 0.1567 | 5.928 | 4.857 | 4.134
x1 = 0.2089 | 6.207 | 5.066 | 4.274
x1 = 0.2683 | 6.373 | 5.168 | 4.367
x1 = 0.2986 | 6.429 | 5.206 | 4.393
x1 = 0.4054 | 6.424 | 5.195 | 4.362
x1 = 0.5082 | 6.261 | 5.038 | 4.22
x1 = 0.6024 | 5.991 | 4.851 | 4.058
x1 = 0.7078 | 5.825 | 4.666 | 3.925
x1 = 0.7906 | 5.648 | 4.568 | 3.857
x1 = 0.8419 | 5.594 | 4.524 | 3.828
x1 = 0.9102 | 5.589 | 4.493 | 3.81
x1 = 0.9579 | 5.579 | 4.478 | 3.801

— the CheMixHub viscosity set
